{
  "source": "paper PMC11226696",
  "about": "“Ergothioneine promotes longevity and healthy aging in male mice” (GeroScience, 2024)",
  "target": "T1, recombinant human histamine N-methyltransferase (rhHNMT) (Homo sapiens, UniProt P50135)",
  "T1 construct": "gene HNMT",
  "T1 sequence (P50135 whole entry)": "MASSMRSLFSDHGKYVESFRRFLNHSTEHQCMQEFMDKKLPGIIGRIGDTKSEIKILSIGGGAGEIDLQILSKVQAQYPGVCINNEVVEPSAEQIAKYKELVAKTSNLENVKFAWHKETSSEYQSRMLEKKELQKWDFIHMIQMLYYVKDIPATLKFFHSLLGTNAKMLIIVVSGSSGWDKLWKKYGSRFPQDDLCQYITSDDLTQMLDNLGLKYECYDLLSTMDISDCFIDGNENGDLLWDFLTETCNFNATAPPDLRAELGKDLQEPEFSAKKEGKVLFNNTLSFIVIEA",
  "test": "recombinant enzyme assay, LC-MS/MS of histamine and methylhistamine; Lineweaver-Burk analysis",
  "format": "biochemical",
  "data": [
    {"smiles": "C[N+](C)(C)[C@@H](Cc1c[nH]c(=S)[nH]1)C(=O)[O-]", "note": "[ERGO, ergothioneine]", "values": [
      {"measurement": "recombinant enzyme assay, LC-MS/MS of histamine and methylhistamine; Lineweaver-", "value": "Lineweaver–Burk analysis revealed that ERGO competitively inhibited rhHNMT against histamine (Fig. 6c)"}
    ]}
  ]
}
